Data on two substances can be found in patent US20210283213A1, “CRYSTAL OF POLYMYXIN B1 SULFATE, POLYMYXIN B2 SULFATE OR THEIR MIXTURE AND PREPARATION METHOD THEREOF” (Hubei Ruihaoanke Pharmaceutical Technology Development Co., …, priority 2016, published 2021).

Type in all cases: physicochemical
The nature of data set [1]: DVS (dynamic moisture adsorption analysis). The following applies: 0% RH-80% RH.
Another data set in a line: Hot stage XRD.
Data set [2] is described as follows: TGA (thermogravimetric analysis).
Data set [3] is described as follows: Stability evaluation of crystal form in a dry state at room temperature. The following applies: placed in a dry state at room temperature for 3 days.
The nature of data set [4]: Crystal form competitive experiment. Conditions: in ethanol and in a mixed solvent of ethanol/water at room temperature. As for the experimental part: (§1) A competitive experiment between crystal form 1 and crystal form A of polymyxin sulfate was carried out to investigate crystal form stability of the two crystal forms in the solvent, water and ethanol, which are commonly used in the preparation, and to evaluate the conversion of the two crystal forms, in order to provide reference for subsequent preparation operations such as granulation.
1. Equal amounts of samples of crystal form 1 and form A were taken and mixed uniformly to obtain an initial mixed sample, which was used for XRD detection (FIG. 14).
2. The uniformly-mixed sample was divided into two portions, to one of which was added 200 μL ethanol, and to another of which was added 300 μL mixed solvent of ethanol/water=5/1 (v/v), to form a suspension. The suspension was stirred at room temperature, and centrifuged and sampled at different times for XRD detection.

A short description of data set [5]: Crystal mush experiment at room temperature. Conditions: in ethanol and in a mixed solvent of ethanol/water at room temperature. As for the experimental part: as §1

Take polymyxin B1 sulfate [crystal form 1]: the hygroscopicity result in data set [1] is listed as “extremely strong hygroscopicity”. Moreover, the “crystal form change on heating” value in the data set “Hot stage XRD” was “The crystal form has not changed when heating up to 170 °C”. For the same substance, the decomposition temperature entry in data set [2] is “XRD, and the decomposition temperature was 222 °C”. For the same substance, in data set [3], the Stability evaluation entry was “Unstable, the crystal form changed to crystal form A when placed”.

As to polymyxin B1 sulfate [crystal form A], in data set [1], the hygroscopicity entry was “extremely strong hygroscopicity”. In data set [2], the decomposition temperature result was “with hot stage XRD, and the decomposition temperature was 213 °C”. Also, the “most stable crystal form (competitive experiment)” value in data set [4] is listed as “most stable crystal form”. In data set [5], the “most stable crystal form (crystal mush experiment)” value is reported as “most stable crystal form”.
